# Results reported in patent publication EP4311544A1, “COMPOUNDS USEFUL AGAINST JELLYFISH STINGS” (Isdin, S. A., priority 2022, dated 2024).
# Assays:
# P. noctiluca [1] = assay: Tentacle Skin Blood Agarose Assay (TSBAA): venom load as hemolytic area after natural stimulation of nematocyst discharge; assay type: cell-based; conditions: for discharge of nematocysts: summary statement on the results of Examples 1 and 2
# Description: (§1) Jellyfish cultures: Jellyfish were cultivated by laboratory conditions in Loro Parque aquarium (Tenerife, Spain). The P. noctiluca adult individuals were breeding in kreisels tanks with a continuous water renewal, 33-35‰ salinity, 22°C temperature and light cycle of 12h light/12h dark. Individuals were daily fed with Artemia sp. nauplii, small pieces of the jellyfish Aurelia sp., eggs of Merluccius and Parapenaeus longirostris.
# Briefly, an agarose gel preparation incorporating sheep red blood cells (SRBCs) (Thermo Fisher Scientific) was used covered by a thin tissue of pig intestine to simulate the effect of the human skin barrier.
# A solution of 4% low melting point agarose (INVITROGEN ™ LMP Agarose) in phosphate buffered saline (PBS) (SIGMA) was prepared and cooled to room temperature for a few minutes. The SRBCs were centrifuged and resuspended in PBS until a final concentration of 2% was obtained. Equal volumes of both preparations were mixed and poured onto a glass surface with a mold (18x7.5 cm) and allowed to cool to room temperature. Once the agarose with SRBCs was set, rectangles were cut and placed on slides and kept at 4 °C in a humidification chamber (maximum 72 hours until use).
# Pig small intestine tissue was washed in a 50 mM saline solution and then cut in rectangular sections. The sections were sterilized in a disinfecting solution consisting of 87% 110 mM saline, 10% ethanol (PANREAC, ethanol 96%) and 3% hydrogen peroxide for 3 hours, after which they were left in physiological serum overnight. The next day, the sections were stretched on a glass surface and allowed to dry for a few minutes in the open air. The pretreated sections of the pig small intestine were placed on the SRBC agarose rectangles.
# Cutting tentacles of the same size is a complicated process due to the contraction and expansion of the tentacles after their manipulation. In order to control the sting area, we design plastic molds obtained through a 3D printer.
# Tentacle pieces of approximately 3 cm long were incubated on reductor or inhibitory solutions (Method 3) for 5 minutes. Consecutively, the agarose rectangles were stung by a sting diameter of 57,35 mm^2 for 1 minute. A weight of 0,66 g was applied to ensure the contact between the tentacle and the skin. After the sting process, the plastic molds and the intestine sections were removed and the SRBC's agarose rectangles were stored in the humidification chamber at room temperature. After a period of 22 hours, images of the hemolytic areas were obtained with a camera. Hemolytic areas were calculated using the Fiji version of ImageJ software (J. Schindelin et al., Fiji: an open-source platform for biological-image analysis. Nature methods, 2012, vol. 9, pp. 676-682). Table 2. Inhibitory efficacy on the venom load to P. noctiluca.
# P. noctiluca [2] = assay: Tentacle Solution Assay (TSA): inhibition of chemically stimulated nematocyst discharge; assay type: cell-based; design: key to Inhibitory effect (TSA) using 5% acetic acid as chemical stimulator Discharge: 0: no discharge was observed; +: low discharge of nematocysts; ++: medium discharge of nematocysts; +++: high discharge of nematocysts; key to Inhibitory effect (TSA) using 5% acetic acid as chemical stimulator Effect: Neutral effect solution: nematocysts were not activated after the incubation in the first solution but were activated by the subsequent chemical stimulation with 5% acetic acid solution; Reductor effect solution: nematocysts were not activated after the incubation in the first solution, but some isolated nematocysts discharge was observed activated by the subsequent chemical stimulation with 5% acetic acid solution; Inhibitory effect solution: nematocysts were not activated after the incubation in the first solution or by the subsequent chemical stimulation with 5% acetic acid solution; conditions: tentacle pieces incubated 5 minutes in 3 ml solution, then 15 µl of 5% acetic acid
# Description: as §1
# Tentacles pieces of approximately 3 cm long were transferred to slides ([…]). The samples were observed under the light microscope in order to ensure their integrity. Subsequently, tentacles were incubated on microwells with 3 ml of each solution for 5 minutes. In order to know the inhibitory effect, the neutral solutions were chemically stimulated by means of 15 µl of 5% acetic acid solution in distilled water (an activator solution per se).
# The nematocysts response was classified qualitatively in four categories in accordance with Pyo et al. (2016): • 1. 0: no discharge was observed; • 2. +: low discharge of nematocysts; • 3. ++: medium discharge of nematocysts; • 4. +++: high discharge of nematocysts.
# The effect was classified in one of three categories: • 1. Neutral effect solution: nematocysts were not activated after the incubation in the first solution but were activated by the subsequent chemical stimulation with 5% acetic acid solution; • 2. Reductor effect solution: nematocysts were not activated after the incubation in the first solution, but some isolated nematocysts discharge was observed activated by the subsequent chemical stimulation with 5% acetic acid solution; • 3. Inhibitory effect solution: nematocysts were not activated after the incubation in the first solution or by the subsequent chemical stimulation with 5% acetic acid solution. Table 1. Inhibitory efficacy on the nematocyst discharge in P. noctiluca.
Compound,discharge of nematocysts (P. noctiluca [1]),Inhibitory effect (TSA) using 5% acetic acid as chemical stimulator Discharge (P. noctiluca [2]),Inhibitory effect (TSA) using 5% acetic acid as chemical stimulator Effect (P. noctiluca [2]),"Venom load - Hemolytic area (%) (P. noctiluca [1]; tentacles incubated 5 minutes in solution, sting 1 minute through pig intestine on sheep red blood cell agarose, read after 22 hours)",% Inhibitory (P. noctiluca [1]; {}) [%]
CC(C)(C)C1CCC(O)CC1 (stereo not drawn) [4-tert-butyl cyclohexanol],significantly reduces,–,–,–,–
"CC(=O)O [5% Acetic acid solution, acetic acid]",–,+++,Activator,–,–
"CC(O)CCO (stereo not drawn) [100% Butylene glycol, butylene glycol]",–,+,Reductor,26.54 ± 19.66,56.33
"CCO [100% Ethanol, ethanol]",–,++,Neutral/Reductor,–,–
"CC(O)CO (stereo not drawn) [100% Propylene glycol, propylene glycol]",–,+,Reductor,–,–
"O=C(CO)c1ccccc1 [HAP, hydroxy acetophenone]",significantly reduces,–,–,–,–
